Reference: US9567327B2, “Imidazo[1,2-a]pyridine derivatives as modulators of the 5-HT2A serotonin receptor useful for the treatment of disorders related thereto” (Arena Pharmaceuticals, Inc., priority 2007, dated 2017)
pIC50: −log10 of the molar value.

Assays:
[1] = molecular target: human 5-HT2A serotonin receptor (Homo sapiens (Human), UniProt P28223); settings: 0.5 nM [125I]DOI, COS7 membranes with recombinant human 5-HT2A; read-out: IC50 DOI Binding Assay
[2] = system: diabetic rats; settings: cited from earlier work
[3] = system: diabetic nephropathy; settings: patients, 24 months of treatment; cited from earlier work
[4] = system: glaucoma patients; settings: cited from earlier work
[5] = system: rats; settings: thermal induced pain i.p., inflammatory pain intrathecal or i.p.; cited from earlier work
[6] = system: humans; settings: sciatica from lumbar disc herniation; cited from earlier work
[7] = system: JC virus; settings: cited from earlier work
[8] = system: DOI-induced hypolocomotion in rats; test: Attenuation of DOI-induced hypolocomotion in rats; type: in vivo, rat; settings: male Sprague-Dawley rats, compound 1-10 mg/kg p.o., DOI 1 mg/kg s.c.
Protocol: In this example, compounds of the invention were tested for inverse agonist activity by determining whether these compounds could attenuate DOI-induced hypolocomotion in rats in a novel environment. DOI is a potent 5-HT2A/2C receptor agonist that crosses the blood-brain barrier. The standard protocol used is described briefly below.
Male Sprague-Dawley rats weighing between 200-350 g were used for all tests. Rats were housed three to four per cage.
(R)-DOI HCl (C11H16INO2.HCl) was obtained from Sigma-Aldrich and was dissolved in 0.9% saline. Compounds of the invention were synthesized at Arena Pharmaceuticals Inc., San Diego, Calif. and were dissolved in 100% PEG400. DOI was injected s.c. in a volume of 1 mL/kg, while compounds of the invention were administered p.o. in a volume of 1 mL/kg.
The “Motor Monitor” (Hamilton-Kinder, Poway, Calif.) was used for all activity measurement. This apparatus recorded rears using infrared photobeams. […]
In determining the effects of compounds of the invention on DOI-induced hypoactivity, animals were first injected with vehicle or the compound of the invention (1-10 mg/kg) in their home cages. […] Ten minutes after DOI administration, animals were placed into the activity apparatus and rearing activity was measured for 10 min.
Results (total rears over 10 min) were analyzed by t-test. […]

[9] = system: heatstroke; settings: in vivo; cited from earlier work
[10] = system: spontaneously hypertensive rats; settings: cited from earlier work
[11] = system: normal volunteers; test: APD125 Phase 1 trials / afternoon nap model of insomnia in normal volunteers; type: in vivo, human
Excerpt: APD125, a potent and selective 5-HT2A serotonin receptor inverse agonist is a member of the genus disclosed in the European Patent EP1558582. […] These effects occurred at the expense of REM sleep. Sleep onset latency was not decreased by APD125.

[12] = system: DOCA-salt induced hypertension in rats; settings: cited from earlier work

O=C(c1cccn2cc(-c3ccccc3)nc12)N1CCN(CCc2ccc(F)cc2)CC1 [Compound 9, (4-(4-Fluorophenethyl)piperazin-1-yl)(2-phenylimidazo[1,2-α]pyridin-8-yl)methanone]
pIC50 [1]: 7.34

COc1cccc(CCc2ccccc2OCC(CN(C)C)OC(=O)CCC(=O)O)c1 (stereo not drawn) [sarpogrelate]
correction of a 19.8% sciatic motor conduction deficit [2]: 82.6-99.7%
urinary albumin excretion level [3]: significantly reduced
intra ocular pressure (IOP) [4]: significantly lower IOP
analgesic effect [5]: significant analgesic effect
treatment of lower back pain, leg pain and numbness [6]: effective treatment

Cc1nc2sccn2c(=O)c1CCN1CCC(=C(c2ccc(F)cc2)c2ccc(F)cc2)CC1 [ritanserin]
correction of a 19.8% sciatic motor conduction deficit [2]: 82.6-99.7%
JC virus infection of human glial cells [7]: inhibited JC virus infection of human glial cells

O=C(c1cccn2ccnc12)N1CCN(CCc2ccccc2F)CC1 [Compound 18, (4-(2-Fluorophenethyl)piperazin-1-yl)(imidazo[1,2-α]pyridin-8-yl)methanone]
attenuation of DOI-induced hypolocomotion (total rears over 10 min) [8]: attenuated DOI-induced hypolocomotion

O=C(c1cccn2ccnc12)N1CCN(CCc2ccc(Cl)cc2Cl)CC1 [Compound 19, (4-(2,4-Dichlorophenethyl)piperazin-1-yl)(imidazo[1,2-α]pyridin-8-yl)methanone]
attenuation of DOI-induced hypolocomotion (total rears over 10 min) [8]: attenuated DOI-induced hypolocomotion

O=C(c1ccc(F)cc1)C1CCN(CCn2c(=O)[nH]c3ccccc3c2=O)CC1 [ketanserin]
intra ocular pressure (IOP) [4]: significantly lower IOP
JC virus infection of human glial cells [7]: inhibited JC virus infection of human glial cells
protection during heatstroke [9]: protect against circulatory shocks, intracranial hypertension and cerebral ischemia during heatstroke
blood pressure [10]: stabilize blood pressure

COc1ccc(NC(=O)Nc2ccc(F)cc2F)cc1-c1c(Br)cnn1C [APD125]
effect on waking EEG ([11]; Phase 1 trials, maximal effects at 40-80 mg): vigilance-lowering effects
microarousals, sleep stage shifts and awakenings after sleep onset ([11]; afternoon nap model): decreased microarousals, the number of sleep stage shifts and number of awakenings after sleep onset
slow wave sleep and associated parameters ([11]; afternoon nap model of insomnia, normal volunteers): increased slow wave sleep and associated parameters in a dose-dependent manner
sleep onset latency ([11]; afternoon nap model, normal volunteers): not decreased

O=C(c1cccn2ccnc12)N1CCN(CC(F)c2ccc(F)cc2)CC1 (stereo not drawn) [Compound 10, (4-(2-Fluoro-2-(4-fluorophenyl)ethyl)piperazin-1-yl)(imidazo[1,2-α]pyridin-8-yl)methanone]
pIC50 [1]: 8.00

CN1CCN2c3ccccc3Cc3ccccc3C2C1 (stereo not drawn) [Mainserin]
DOCA-salt induced hypertension [12]: prevent DOCA-salt induced hypertension

O=CN1CCC(C(=O)NCCN2CCC(=C3c4ccccc4C=Cc4ccccc43)CC2)CC1 [AT-1015]
correction of a 19.8% sciatic motor conduction deficit [2]: 82.6-99.7%
